Measured values: patent US6703362B1, “Random peptides that bind to gastro-intestinal tract (GIT) transport receptors and related methods” (Cytogen Corporation, priority 1997, dated 2004)

Key:
BSA = BSA (Bos taurus, UniProt P02769); assay: Phage ELISA on BSA (background control protein); type: binding
Description: (§1) 96 well plates were coated overnight with GIT receptor, BSA and, optionally, IDE (insulin degrading enzyme, an irrelevant His-fusion protein)or hTF. The plates were 5 blocked for one hour with 0.5% BSA-PBS. After clarification, the amplified phage were diluted 1:100 in […] plus 0.05% Tween 20 in PBS and added to the plates. Following incubation of the plates on a rotator for 1 to 2 hours, the plates were washed 5 times with 1% BSA plus 0.05% Tween 20 in PBS. Dilute anti-M13-HRP conjugate (anti-M13 antibody linked to horse radish peroxidase (HRP)) was added to all the wells and the plate was incubated for one hour on a rotator. After the plates were washed 5 times, as described above, TMB substrate was added to the wells. The plates were read at 650 nm absorbance.

intestinal tissue = assay: Preselected phage libraries, rat closed loop: absorption/internalization to intestinal tissue (hybridization autoradiograph); type: in vivo; conditions: for binding to the intestine / found in the intestine samples: hPEPT1 pool of phages; for found in the intestinal samples fractions: D2H pool of phages
hPEPT1 = target: T1, hPEPT1 (Homo sapiens, UniProt P46059); assay: Phage receptor ELISA on hPEPT1; type: binding; conditions: for OD, binding to hPEPT1: Table 4, phage panned on hPEPT1; for PEPT1/BSA: ratio of hPEPT1 to BSA binding
T1 construct: 391-571; made in house
T1 sequence (P46059 391-571): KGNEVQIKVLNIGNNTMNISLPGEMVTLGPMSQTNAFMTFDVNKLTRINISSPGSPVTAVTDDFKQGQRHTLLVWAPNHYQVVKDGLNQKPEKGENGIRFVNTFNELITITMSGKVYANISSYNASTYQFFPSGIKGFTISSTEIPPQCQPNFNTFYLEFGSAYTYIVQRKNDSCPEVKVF
Description: as §1

[1] = Isoelectric points of synthetic peptides; type: physicochemical
hSI = target: T2, hSI (Homo sapiens, UniProt P14410); assay: Phage receptor ELISA on hSI; type: binding; conditions: for OD, binding to hSI: Table 1, phage panned on hSI, absorbance 650 nm; for hSI/BSA: ratio of hSI to BSA binding
T2 construct: made in house
T2 sequence (P14410 272-667): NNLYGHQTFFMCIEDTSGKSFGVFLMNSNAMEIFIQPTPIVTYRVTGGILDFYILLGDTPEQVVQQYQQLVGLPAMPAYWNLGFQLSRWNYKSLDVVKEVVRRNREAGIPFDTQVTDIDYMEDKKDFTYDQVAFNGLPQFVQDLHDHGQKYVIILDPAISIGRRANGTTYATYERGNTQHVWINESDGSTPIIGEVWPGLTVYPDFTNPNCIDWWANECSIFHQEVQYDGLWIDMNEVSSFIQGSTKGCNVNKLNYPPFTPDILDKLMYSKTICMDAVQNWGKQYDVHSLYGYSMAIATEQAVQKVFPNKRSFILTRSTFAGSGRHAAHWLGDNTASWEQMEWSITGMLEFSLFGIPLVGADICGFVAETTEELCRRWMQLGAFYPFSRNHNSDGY
Description: as §1

D2H = target: T3, D2H (Homo sapiens, UniProt Q07837); assay: Phage receptor ELISA on D2H; type: binding; conditions: Table 3; for D2H/BSA: ratio of D2H to BSA binding; for OD, binding to D2H: two rounds on D2H, third pan on Caco-2 snapwells
T3 construct: 387-685; made in house
T3 sequence (Q07837 387-685): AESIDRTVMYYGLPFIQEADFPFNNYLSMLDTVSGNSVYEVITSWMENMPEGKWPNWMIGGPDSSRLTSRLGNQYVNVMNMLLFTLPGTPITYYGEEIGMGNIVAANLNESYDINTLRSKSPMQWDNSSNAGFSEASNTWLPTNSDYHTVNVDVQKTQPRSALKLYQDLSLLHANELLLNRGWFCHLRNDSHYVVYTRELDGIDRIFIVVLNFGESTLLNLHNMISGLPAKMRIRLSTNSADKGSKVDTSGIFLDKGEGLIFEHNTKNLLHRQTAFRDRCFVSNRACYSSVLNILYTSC
Description: as §1

[2] = system: fixed Caco-2 or C2BBe1 cells; assay: ELISA of GST fusion proteins on fixed Caco-2 or C2BBe1 cells; type: binding
Description: Fixed Caco-2, C2BBe1, and A431 cell plates were prepared by growing cells on tissue culture treated microtiter plates. When cells were confluent, plates were fixed with 10% formaldehyde, washed twice with PBS and stored with 0.5%BSA-PBS at −20° C. […] The standard ELISA procedure was followed at this point.
The standard ELISA procedure was modified as follows. GST proteins were diluted to an appropriate concentration in PBS containing lkBSA and 0.05% Tween20 (1%BPT), titered and incubated one hour at room temperature. Following five washes an anti-GST monoclonal antibody was added (Sigma, St. Louis Clone GST-2 diluted 1:10,000 in 1%BPT) and incubated one hour. After five more washes goat anti-mouse IgG2b-HRP was added (Southern Biotechnology Associates Inc., Birmingham, Ala., diluted 1:4000 in 1%BPT) and incubated one hour. After five washes plates were developed with TMB peroxidase substrate (Kirkegard and Perry, Gaithersburg, Md.). All data is presented with background binding subtracted.

fixed Caco-2 cells = assay: Effect of thrombin cleavage on binding of GST-peptide fusions to fixed Caco-2 cells; conditions: thrombin 18 h at room temperature
Description: Binding of intact and thrombin-cleaved GST-peptide fusions to fixed Caco-2 cells was compared.
Thirty micrograms of each GST-peptide was treated with bovine thrombin (1 μ/ml; 0.4 NIH units; Sigma CN.T9681) for 18 h at room temperature in 2OmM Tris-HCl pH8.0, 150 mM NaCl, 2.5 mM CaCl2. Controls were similarly treated without addition of thrombin. Ten micrograms of each GST-peptide fusion was removed for PAGE analysis, and 10 μg of fusions were added in duplicate to the fixed Caco-2 cells before 5-fold serial dilutions (1% BPT diluent). The fusions were allowed to bind for 1 h at room temperature. Following 6 washes with 1% BPT, binding was assayed by ELISA.

[3] = system: ZElan024 (P31), ZElan018 (PAX2), ZElan021 (HAX42); assay: Crossreactive binding of GST fusions to dansylated peptides
[4] = system: P100 membrane fraction derived from Caco-2 cells; assay: GST-PAX2 peptides relative binding to P100 fractions (ratio to GST-HAX42); conditions: 20 μg/ml GST-peptide; binding to plastic subtracted; GST-HAX42 = 1.00
Description: The peptides and proteins were analyzed by a dansylated peptide ELISA method in which 96 well plates were coated overnight at 4° C. with 100 μl/well coating protein (normally 100 μg/ml P100 membrane fraction) in 0.05M carbonate buffer pH9.6. Nonspecific binding was blocked using 200 μl/well, 2% Marvel/PBS for 2 hours at 37° C. prior to incubation with dansylated peptides. The plates were washed three times with PBS/0.05% Tween 20 and after each subsequent incubation step. […] A buffer blank control was included to ensure that background binding to plastic was not due to the antibodies used in the assay system. […] The plates were then incubated with an anti-mouse X-HRP conjugated antibody (Southern Biotech 1060-05) at a 1:10,000 dilution in blocking solution, 100 μl/well for 1 hour at room temperature. Plates were developed using 75 μl/well Bionostics TMB substrate and incubated for approximately 10 minutes. The developing reaction was stopped using Bionostics Red Stop solution (25 μl/well), and the optical density of the plates was read at 650nm.
After subtraction of the GST-peptide binding to plastic from P100 binding values, the binding of GST-PAX2 peptides were represented as a ratio of GST-HAX42 binding to P100, which was given the arbitrary value of 1.00. The following ratios were determined from binding to P100 of GST-peptides at a peptide concentration of 20 μg/ml. Bold denotes positive binding to the P100 membrane fraction.

Chain of BSA (P02769 25-607): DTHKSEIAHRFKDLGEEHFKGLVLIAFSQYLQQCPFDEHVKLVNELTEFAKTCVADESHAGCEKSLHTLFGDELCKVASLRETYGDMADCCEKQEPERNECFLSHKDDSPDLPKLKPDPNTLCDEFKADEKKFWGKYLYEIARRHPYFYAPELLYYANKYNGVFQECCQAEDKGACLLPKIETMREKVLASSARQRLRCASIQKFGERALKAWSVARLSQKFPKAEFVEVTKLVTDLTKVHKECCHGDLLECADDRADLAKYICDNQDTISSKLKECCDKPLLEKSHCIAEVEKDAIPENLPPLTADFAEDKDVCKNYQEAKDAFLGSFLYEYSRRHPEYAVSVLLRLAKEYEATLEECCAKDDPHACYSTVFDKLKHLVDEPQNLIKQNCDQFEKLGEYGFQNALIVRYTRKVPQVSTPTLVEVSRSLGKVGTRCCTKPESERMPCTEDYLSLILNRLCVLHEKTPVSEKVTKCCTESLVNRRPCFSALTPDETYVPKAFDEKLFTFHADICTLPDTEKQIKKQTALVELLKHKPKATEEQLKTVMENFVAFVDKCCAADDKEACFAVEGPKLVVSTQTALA

RGSTGTAGGERSGVLNLHTRDNASGSGFKPWYPSNRGHK [Peptide 5PAX5]
OD, binding to BSA (BSA; Table 4): 0.036 | binding to the intestine / found in the intestine samples (intestinal tissue): not found in the intestine samples | OD, binding to hPEPT1 (hPEPT1): 0.15 | PEPT1/BSA (hPEPT1): 4 | pI [1]: 11.49

RVGQCTDSDVRRPWARSCAHQGCGAGTRNSHGCITRPLRQASAH [SNi10]
OD, binding to BSA (BSA; Table 1, phage panned on hSI): 0.051 | OD, binding to hSI (hSI): 0.57 | hSI/BSA (hSI): 11 | pI [1]: 10.45

RYKHDIGCDAGVDKKSSSVRGGCGAHSSPPRAGRGPRGTMVSRL [DCX8]
OD, binding to BSA (BSA; Table 3): 0.063 | found in the intestinal samples fractions (intestinal tissue): to a much lesser extent | D2H/BSA (D2H): 3 | OD, binding to D2H (D2H): 0.163 | pI [1]: 11.03

SARDSGPAEDGSRAVRLNGVENANTRKSSRSNPRGRRHP [Peptide P31]
OD, binding to BSA (BSA; Table 4): 0.075 | binding to the intestine / found in the intestine samples (intestinal tissue): preferential binding | OD, binding to hPEPT1 (hPEPT1): 0.807 | PEPT1/BSA (hPEPT1): 11 | pI [1]: 12.26

SPCGGSWGRFMQGGLFGGRTDGCGAHRNRTSASLEPPSSDY [SNi34]
OD, binding to BSA (BSA; Table 1, phage panned on hSI): 0.115 | OD, binding to hSI (hSI): 0.761 | hSI/BSA (hSI): 7 | pI [1]: 8.25

SQGSKQCMQYRTGRLTVGSEYGCGMNPARHATPAYPARLLPRYR [DCX11]
OD, binding to BSA (BSA; Table 3): 0.071 | found in the intestinal samples fractions (intestinal tissue): found in the intestinal samples fractions | D2H/BSA (D2H): 3 | OD, binding to D2H (D2H): 0.222 | pI [1]: 10.44

STPPSREAYSRPYSVDSDSDTNAKHSSHNRRLRTRSRPN [PAX2]
binding to the intestine / found in the intestine samples (intestinal tissue): not found in the intestine samples | pI [1]: 11.26

gst-ENANTRKSSRSNPRGRRHP [GST-P31.103]
binding of truncation to fixed Caco-2 cells relative to full-length fusion [2]: bound almost as well as full-length P31 | effect of thrombin cleavage on detection of binding (fixed Caco-2 cells): significantly reduced detection of binding

gst-RVGQCTDSDVRRPWARSCAHQGCGAGTRNSHGCITRPLRQASAH [GST-SNi10]
binding to fixed Caco-2 or C2BBe1 cells relative to GST control [2]: bound fixed Caco-2 or C2BBe1 cells | effect of thrombin cleavage on detection of binding (fixed Caco-2 cells): significantly reduced detection of binding

gst-SDHALGTNLRSDNAKEPGDYNCCGNGNSTGRKVFNRRRPSAIPT [GST-HAX42]
crossreactivity to ZElan018 (PAX2) and ZElan021 (HAX42) ([3]; 5 μg/ml concentration used in competition assays): crossreactivity | Value (binding to P100 as ratio of GST-HAX42 binding) [4]: 1.00 | binding to fixed Caco-2 or C2BBe1 cells relative to GST control [2]: weak to moderate binding

gst-STPPSREAYSRPYSVDSDSDTNAKHSSHNRRLRTRSRPN [GST-PAX2]
crossreactive binding to ZElan024 (P31) and ZElan018 (PAX2) ([3]; 0.5 μg/ml concentration used in competition assays): no crossreactive binding | Value (binding to P100 as ratio of GST-HAX42 binding) [4]: 1.79 | binding to fixed Caco-2 or C2BBe1 cells relative to GST control [2]: bound fixed Caco-2 or C2BBe1 cells

gst-TNAKHSSHNRRLRTRSRPN [GST-PAX2.106]
Value (binding to P100 as ratio of GST-HAX42 binding) [4]: 2.71 | binding of truncation to fixed Caco-2 cells relative to full-length fusion [2]: bound similarly to full-length PAX2 | effect of thrombin cleavage on detection of binding (fixed Caco-2 cells): significantly reduced detection of binding
